Measured values published in patent US6309882A, “Antisense inhibition of replication protein a p70 subunit” (ISIS Pharmaceuticals, Inc., priority 1999, dated 2001).

Columns and labels:
Assay type in all cases: cell-based, human
RPA70 mRNA = RPA70 mRNA expression in A549 cells, Northern blot
Procedure: Antisense treatments were performed with phosphorothioate oligodeoxynucleotides. Cells were cultured in 6-well plates to 60-80% confluency for use in oligonucleotide treatments. Cells were washed once with OPTI-MEM™ (Life Technologies), pre-warmed to 37° C. Transfections were carried out in 1 ml OPTI-MEM™ containing 3 μg LIPOFECTIN™ (Life Technologies) per ml of Opti-MEM™ per 100 nM added oligonucleotide. OPTI-MEM™ containing the appropriate amount of LIPOFECTIN™ was added to the cells followed by addition of oligonucleotides from 1000×stocks. (For dose-response studies oligonucleotides were added from 20×stocks.) Cells were incubated for 5 h at 37° C. Following treatment, medium was removed and replaced with pre-warmed replete media (Bennett, C. F., et al., Mol. Pharm., 1992, 41, 1023-1033; Monia, B. P., et al., Nature Medicine, 1993, 2, 668-674).
Target mRNA levels were assessed by Northern blotting with target specific random primed [α-^32 P]dCTP-labeled cDNA probes, as described below. cDNAs for probes were obtained by specific RT-PCR of cellular RNAs.
For determination of mRNA levels by Northern blot, total RNA was prepared from cells 24 h after oligonucleotide addition using a SDS-lysis method (Peppel, K. and Baglioni, C., Biotechniques, 1990, 9, 711-713). Northern analysis was performed as described (Brown, T. and Mackey, K., in Current protocols in Molecular Biology (Ausubel, F. ed.), 1987, Vol. 1, pp. 4.9.1-4.912, Greene publishing, New York). To determine RPA70 mRNA expression RNA blots were probed using a random primed [α-^32 P]dCTP-labeled cDNA probe corresponding to a 562 nucleotide sequence (1519-2081) from human RPA70 (Erdile, L. F., et al., J. Biol. Chem., 1991, 266, 12090-12098). After transfer, membranes were prehybridized with Quik-Hyb solution (Stratagene, La Jolla, Calif.) for 1 h at 68° C. and then hybridized 1-4 hours with 12.5×10^6 cpm of cDNA probe and 2 μg salmon sperm DNA carrier in a total of 10 ml of hybridization solution. Following hybridization, membranes were washed twice at room temperature for 15 min in 2×SSC/0.1% SDS and then once at 60° C. for 30 min in 0.1×SSC/0.1% SDS.
RNA on the blots was quantified by phosphorimaging on a Fuji FLA-2000. RPA70 mRNA levels are normalized to the level of RPA70 mRNA measured in cells treated with 400 nM control 20N-mer phosphorothioate oligonucleotide and expressed as percentage of control treated levels. Glyceraldehyde phosphate dehydrogenase (GAPDH) mRNA levels were probed using a random primed GAPDH cDNA generated by RT-PCR with human GAPDH primers (Stratagene, Inc., La Jolla, Calif.).
To assess the ability of these oligonucleotides to inhibit RPA70 expression, A549 cells were treated with oligonucleotide at 400 nM in the presence of LIPOFECTIN™, and the level of RPA70 mRNA was measured by Northern blot analysis (see Table 3). Most oligonucleotides reduced RPA70 mRNA levels by 50% to 94%. […] This oligonucleotide targets a non-variant region located in the 3'-UTR of RPA70 mRNA and is not variance-specific.

Mia Paca II cells [1] = assay: Tumor cell survival, cell number by hemocytometer; settings: 400 nM, 72 hours
Procedure: (§1) To determine the effects of ISIS 12790 on tumor cell survival, T24, A549, Mia Paca II, and SW480 cells were treated with either ISIS 12790 or ISIS 13706 (a 20-mer with identical nucleotide composition but containing 7 mismatches relative to the target) and surviving cells counted 72 hours later.
(§2) For experiments where cell number was measured directly by hemocytometer, cells were plated in six well dishes 24 hr prior to the experiment and transfected at approximately 50-70% confluency with various phosphorothioate oligonucleotides at 400 nM, as described above. Following a single transfection, the cells were allowed to recover 72 hours. After 72 hr the cells were washed, trypsinized, and cell number was determined by hemocytometer. For each experiment, treatments were performed in triplicate wells. The number of cells corresponding to each well was determined twice.
(§3) Statistical analysis of mRNA levels and cell survival data were performed using BMDP Statistical package, Version 7.0 (BMDP Statistical Software, Inc., Los Angeles, Calif.). Data were subjected to ANOVA and the results were expressed in terms of F-values, t-values, and significance. For cell survival data, analyses included repeated measurements with 3 between factors (drug, concentration, and position). For mRNA levels only the 3 between factors were considered. Global comparisons were performed with F-tests and pairwise comparisons with t-tests. In each case, since there was no interaction with position, results were pooled and analyzed with two between factors (drug and concentration). Treatment with ISIS 12790 was associated with decreased cell number in all four tumor cell lines (see Table 4). The decrease in cell number observed in T24 cells was 79%. The decrease observed in the other three cell lines was: A549, 98% decrease; Mia Paca II, 85% decrease; SW480, 81% decrease.

SW480 cells = assay: Tumor cell survival, cell number by hemocytometer; settings: SW480, 400 nM, 72 hours
Procedure: as §1, §2, §3

T24 cells = assay: Tumor cell survival, cell number by hemocytometer; settings: T24, 400 nM, 72 hours
Procedure: as §1, §2, §3

Mia Paca II cells [2] = assay: Mia Paca II cell survival, Sulforhodamine B staining; settings: for % Cell Killing / % Cell Survival: Mia Paca II, SRB, 6 days
Procedure: Cells were transfected with matched, mismatched, or non-allele specific anti-RPA70 (ISIS 12790) oligonucleotides as described above. Following transfection, the cells were allowed to recover either three days (HeLa cells) or 6 days (Mia Paca II cells). The number of cells remaining attached to the tissue culture dish was quantified by Sulforhodamine B (SRB) staining (FluoReporter Colorimetric Cell Protein Assay Kit, Molecular probes).
However, at 400 nM, there was a statistically significant difference in survival with less survival seen in cells treated with the matched oligonucleotide,VAR 13085, than the mismatched oligonucleotide, ISIS 12781 (p=0.02). At 400 nM, there was a 4.6 fold difference in cell survival between matched and mismatched oligonucleotides. […] The IC50 for inhibition of Mia Paca II cell survival was similar to that for suppression of RPA70 mRNA for both VAR 13085 and ISIS 12790. The effect of antisense treatment on cell survival for both cell lines appears to be cytotoxic rather than cytostatic as the absolute number of cells decreases for both cell lines when treated with matched antisense oligonucleotides.

[3] = 400 nM oligonucleotide with LIPOFECTIN, RNA 24 h after addition

ISIS 12790: phosphorothioate oligodeoxynucleotide TGGTCTGCAGTTAGGGTCAG, SEQ ID NO 15, 3'-UTR 2230-2249, non-allele specific (DNA, all phosphorothioate, methylation of C not given here)
reduction in RPA70 mRNA levels (RPA70 mRNA; 400 nM): 94% | % mRNA EXPRESSION (RPA70 mRNA; [3]): 6% | % mRNA INHIBITION (RPA70 mRNA; [3]): 94% | decrease in cell number (Mia Paca II cells [1]): 85% | % Cell Killing (SW480 cells): 81% | % Cell Survival (SW480 cells): 19% | decrease in cell number (SW480 cells): 81% | % Cell Killing (T24 cells): 79% | % Cell Survival (T24 cells): 21% | decrease in cell number (T24 cells): 79% | effect on cell survival (Mia Paca II cells [2]; Mia Paca II cells): dose-dependent decrease in the number of surviving cells | IC50 (Mia Paca II cells [2]; Mia Paca II cells, read-out: IC50 for decrease in cell survival): < 0.1 µM | % Cell Killing (Mia Paca II cells [2]; 50 nM): 39% | % Cell Survival (Mia Paca II cells [2]; 50 nM): 61% | % Cell Killing (Mia Paca II cells [2]; 100 nM): 86% | % Cell Survival (Mia Paca II cells [2]; 100 nM): 14% | % Cell Killing (Mia Paca II cells [2]; 200 nM): 94% | % Cell Survival (Mia Paca II cells [2]; 200 nM): 6% | % Cell Killing (Mia Paca II cells [2]; 400 nM): 88% | % Cell Survival (Mia Paca II cells [2]; 400 nM): 12%
